Publication PMC11087268, “A folate inhibitor exploits metabolic differences in Pseudomonas aeruginosa for narrow-spectrum targeting” (Nature Microbiology, 2024)

What was measured:
[1] = tested on: Pseudomonas aeruginosa PA14; assay: MIC against P. aeruginosa PA14 in LB broth; type: cell-based
Description: Overnight cultures were diluted 1:150 in LB broth and added to a 96-well plate. Antibiotics were serially diluted 1:2 and added to columns of the 96-well plate and grown at 37 °C with continuous shaking. Cell growth was measured using optical density at 600 nm (OD600). MIC assays were performed in either BioTek Synergy HT or Tecan InfiniteM200 Pro microplate readers.

[2] = tested on: P. aeruginosa PA14; assay: Growth of P. aeruginosa PA14 in TMI-supplemented media with fluorofolin; type: cell-based, Pseudomonas aeruginosa; note: test concentration or dose not given here

SMILES: Nc1nc(N)c2c(ccc3c2ccn3Cc2ccnc(F)c2)n1 [fluorofolin]
- MIC ([1]; Pseudomonas aeruginosa, PA14): 3.1 µg/mL
- MIC ([1]; Pseudomonas aeruginosa, PA14, 16 h): 3.12 µg/mL
- MIC ([1]; Wildtype PA14, control for each drug stock): 3.1 µg/mL
- OD600 of P. Aeruginosa PA14 ([2]; Fluorofolin + TMI, Time 0 min): 0.00375
- OD600 of P. Aeruginosa PA14 ([2]; Fluorofolin + TMI, Time 64.0617 min): 0.00775
- OD600 of P. Aeruginosa PA14 ([2]; Fluorofolin + TMI, Time 74.7383 min): 0.00825
- OD600 of P. Aeruginosa PA14 ([2]; Fluorofolin + TMI, Time 85.415 min): 0.0086
- OD600 of P. Aeruginosa PA14 ([2]; Fluorofolin + TMI, Time 96.0917 min): 0.0088
- OD600 of P. Aeruginosa PA14 ([2]; Fluorofolin + TMI, Time 106.768 min): 0.00895
- OD600 of P. Aeruginosa PA14 ([2]; Fluorofolin + TMI, Time 117.445 min): 0.00965
- OD600 of P. Aeruginosa PA14 ([2]; Fluorofolin + TMI, Time 128.123 min): 0.00995
- OD600 of P. Aeruginosa PA14 ([2]; Fluorofolin + TMI, Time 138.8 min): 0.0106
- OD600 of P. Aeruginosa PA14 ([2]; Fluorofolin + TMI, Time 149.477 min): 0.01185
- OD600 of P. Aeruginosa PA14 ([2]; Fluorofolin + TMI, Time 160.153 min): 0.0109
- OD600 of P. Aeruginosa PA14 ([2]; Fluorofolin + TMI, Time 170.83 min): 0.01125
- OD600 of P. Aeruginosa PA14 ([2]; Fluorofolin + TMI, Time 181.507 min): 0.01245
- OD600 of P. Aeruginosa PA14 ([2]; Fluorofolin + TMI, Time 192.183 min): 0.01295
- OD600 of P. Aeruginosa PA14 ([2]; Fluorofolin + TMI, Time 202.86 min): 0.0136
- OD600 of P. Aeruginosa PA14 ([2]; Fluorofolin + TMI, Time 213.537 min): 0.01355
- OD600 of P. Aeruginosa PA14 ([2]; Fluorofolin + TMI, Time 224.213 min): 0.01385
- OD600 of P. Aeruginosa PA14 ([2]; Fluorofolin + TMI, Time 234.89 min): 0.0143
- OD600 of P. Aeruginosa PA14 ([2]; Fluorofolin + TMI, Time 245.567 min): 0.0154
- OD600 of P. Aeruginosa PA14 ([2]; Fluorofolin + TMI, Time 256.243 min): 0.01575
- OD600 of P. Aeruginosa PA14 ([2]; Fluorofolin + TMI, Time 266.922 min): 0.0155
- OD600 of P. Aeruginosa PA14 ([2]; Fluorofolin + TMI, Time 277.598 min): 0.0159
- OD600 of P. Aeruginosa PA14 ([2]; Fluorofolin + TMI, Time 288.275 min): 0.01755
- OD600 of P. Aeruginosa PA14 ([2]; Fluorofolin + TMI, Time 298.952 min): 0.01775
- OD600 of P. Aeruginosa PA14 ([2]; Fluorofolin + TMI, Time 309.628 min): 0.01825
- OD600 of P. Aeruginosa PA14 ([2]; Fluorofolin + TMI, Time 320.305 min): 0.0182
- OD600 of P. Aeruginosa PA14 ([2]; Fluorofolin + TMI, Time 330.982 min): 0.0183
- OD600 of P. Aeruginosa PA14 ([2]; Fluorofolin + TMI, Time 341.658 min): 0.0174
- OD600 of P. Aeruginosa PA14 ([2]; Fluorofolin + TMI, Time 352.335 min): 0.01685
- OD600 of P. Aeruginosa PA14 ([2]; Fluorofolin + TMI, Time 363.012 min): 0.01765
- OD600 of P. Aeruginosa PA14 ([2]; Fluorofolin + TMI, Time 373.688 min): 0.01775
- OD600 of P. Aeruginosa PA14 ([2]; Fluorofolin + TMI, Time 384.365 min): 0.01795
- OD600 of P. Aeruginosa PA14 ([2]; Fluorofolin + TMI, Time 395.042 min): 0.01805
- OD600 of P. Aeruginosa PA14 ([2]; Fluorofolin + TMI, Time 405.718 min): 0.01805
- OD600 of P. Aeruginosa PA14 ([2]; Fluorofolin + TMI, Time 416.395 min): 0.01825
- OD600 of P. Aeruginosa PA14 ([2]; Fluorofolin + TMI, Time 427.072 min): 0.01805
- OD600 of P. Aeruginosa PA14 ([2]; Fluorofolin + TMI, Time 437.748 min): 0.01825
- OD600 of P. Aeruginosa PA14 ([2]; Fluorofolin + TMI, Time 448.425 min): 0.018
- OD600 of P. Aeruginosa PA14 ([2]; Fluorofolin + TMI, Time 459.102 min): 0.0175
- OD600 of P. Aeruginosa PA14 ([2]; Fluorofolin + TMI, Time 469.78 min): 0.01855
- OD600 of P. Aeruginosa PA14 ([2]; Fluorofolin + TMI, Time 480.457 min): 0.0181
- OD600 of P. Aeruginosa PA14 ([2]; Fluorofolin + TMI, Time 491.133 min): 0.01785
- OD600 of P. Aeruginosa PA14 ([2]; Fluorofolin + TMI, Time 501.81 min): 0.01825
- OD600 of P. Aeruginosa PA14 ([2]; Fluorofolin + TMI, Time 512.487 min): 0.0184
- OD600 of P. Aeruginosa PA14 ([2]; Fluorofolin + TMI, Time 523.163 min): 0.01965
- OD600 of P. Aeruginosa PA14 ([2]; Fluorofolin + TMI, Time 533.84 min): 0.0189
- OD600 of P. Aeruginosa PA14 ([2]; Fluorofolin + TMI, Time 544.517 min): 0.0184
- OD600 of P. Aeruginosa PA14 ([2]; Fluorofolin + TMI, Time 555.193 min): 0.01805
- OD600 of P. Aeruginosa PA14 ([2]; Fluorofolin + TMI, Time 565.87 min): 0.0187
- OD600 of P. Aeruginosa PA14 ([2]; Fluorofolin + TMI, Time 576.547 min): 0.01815
- OD600 of P. Aeruginosa PA14 ([2]; Fluorofolin, Time 0 min): -0.00105
- OD600 of P. Aeruginosa PA14 ([2]; Fluorofolin, Time 64.0617 min): 0.00425
- OD600 of P. Aeruginosa PA14 ([2]; Fluorofolin, Time 74.7383 min): 0.0047
